Holding throughout (format): cell-based
The test system of data set [1] is vascular smooth muscle cells (VSMC). In words: LDH release cytotoxicity in VSMC. The note with it: VSMC, 10 μM, 48 h, relative to vehicle. The protocol:
(§1) Additional compounds have also been tested for their ability to inhibit both TNF-α-induced NF-κB—expression and PMA-induced AP-1 expression. In both tests, the compound was added for 1 h, then the appropriate inducer was added, and luciferase activity was monitored 24 h later. Values were then normalized to the vehicle control, DMSO. Following the initial luciferase screens, studies were conducted to assess the cytotoxicity of the compounds in normal cells such as VSMC, HUVEC, or HPT cells. Human umbilical vein endothelial cells (HUVEC) represent the normal endothelium, vascular smooth muscle cells (VSMC) were represented by cells from the adult rat aorta, and human proximal tubule (HPT) cells represent the normal proximal tubule in vivo. These cells were grown to near confluency in multi-well plates, and were then treated for 48 h with either vehicle (0.1% DMSO) or 10 μM of each drug candidate. Following treatment, the media from the VSMC and HUVEC incubations were removed, and the amount of lactate dehydrogenase (LDH) released into the medium was determined with a commercial kit. LDH is normally confined to the cytosol, and its release represents “leakiness” of the plasma membrane. LDH activity was expressed as % increase over vehicle-treated cells. In another assay of viability, the treated VSMC and HUVEC were removed by trypsinization and treated with trypan blue, a dye that is taken up only by dead cells. The number of both live and dead cells was counted using an automated cell viability analyzer. The % decrease in numbers of viable cells was determined. Toxicity in the treated HPT cells was determined by the ethidium homodimer (EthHD) uptake assay. EthHD is a fluorescent dye that is excluded from live cells, but is taken up by cells that have lost permeability barriers. Inside the cell, EthHD produces a strong fluorescent signal, which is proportional to the number of dead cells. Results were expressed as a % increase in cell death over vehicle-treated cells. The lead compounds were also tested in two pairs of cell lines from either the skin or prostate, one tumorigenic and one non-tumorigenic, to test for any differences in toxicity or heightened sensitivity in the tumorigenic lines. The cells were treated for 48 h with vehicle (0.1% DMSO) or 10 μM of each drug candidate. Following treatment, the viability of the cells was determined by the MTT assay. In this assay, the MTT dye is converted only in viable cells by intracellular enzymes to a colorimetric product that is quantitated by a microplate reader.
(§2) For the results in Table 13, cells were grown to near confluency in multi-well plates, then treated for 48 h with either vehicle (0.1% DMSO) or 10 μM of each drug candidate. Following treatment, the media from the VSMC and HUVEC incubations were removed, and the amount of lactate dehydrogenase (LDH) released into the medium was determined with a commercial kit and expressed as a % increase over vehicle-treated cells. HPT toxicity was determined by the ethidium homodimer (EthHD) uptake assay. Inside the cell, EthHD produces a strong fluorescent signal, which is proportional to the amount of cell death, expressed as a % increase in cell death over vehicle-treated cells. The lead compounds were also tested in two pairs of cell lines from the skin or prostate, one tumorigenic and one non-tumorigenic, to test for differing toxicity or heightened sensitivity in the tumorigenic lines. The cells were treated for 48 h with vehicle (0.1% DMSO) or 10 μM of each drug candidate, and the viability of the cells was determined by the MTT assay, expressed as a % decrease in viability compared to vehicle-treated cells. The in vivo inflammation model measured the % inhibition of rat paw edema induced by carageenan injection.

Data set [2] relates to Human umbilical vein endothelial cells (HUVEC). Put plainly: LDH release cytotoxicity in HUVEC. To be noted: HUVEC, 10 μM, 48 h, relative to vehicle. The method, then: as §1, §2
(Release of lactate dehydrogenase indicates damage to the cell membrane.)

In the next data set the test system is AP-1. Put plainly: PMA-induced AP-1 luciferase expression in HEK cells. To be noted: PMA-induced; compound added 1 h before inducer, luciferase 24 h later; normalized to DMSO vehicle.
Data set [3] relates to Human umbilical vein endothelial cells (HUVEC). Put plainly: Trypan blue viability count in HUVEC. The note with it: HUVEC, 10 μM, 48 h, relative to vehicle. The protocol: as §1
The subject of data set [4] is vascular smooth muscle cells (VSMC). In words: Trypan blue viability count in VSMC. To be noted: VSMC, 10 μM, 48 h, relative to vehicle. The protocol: as §1
The subject of another data set is NF-κB. Put plainly: TNF-α-induced NF-κB-dependent luciferase expression in HEK cells. The arrangement: NF-κB % inhibition: concentration or dose not given beside the values. To be noted: TNF-α-induced; compound added 1 h before inducer, luciferase 24 h later; normalized to DMSO vehicle.
The subject of data set [5] is cell lines from the skin, one tumorigenic and one non-tumorigenic. In words: MTT viability in skin cell line pair, tumorigenic and non-tumorigenic. The protocol:
as §1, §2

Data set [6] has as its system human proximal tubule (HPT) cells. In words: Ethidium homodimer (EthHD) uptake toxicity assay in HPT cells. To be noted: 10 μM, 48 h, relative to vehicle. The method, then: as §1, §2

Marks after values point to notes of the source that are not given here.

Turning to `CNc1nc(-c2ccccc2)c(-c2nc3ccccc3c(=O)n2-c2ccccc2OC)s1` [PMCR75], the “LDH release % Increase VSMC” value in data set [1] is on record as 31# %. Moreover, the “LDH release % Increase HUVEC” value in data set [2] was 15%. Moreover, the AP-1 % inhibition with AP-1 is 90** %. In addition, the “Viable Cells % Decrease HUVEC” value in data set [3] is reported as 41# %. The “Viable Cells % Decrease VSMC” value in data set [4] was 70# %. The NF-κB % inhibition with NF-κB is recorded as 61** %. In addition, in data set [5], the “Viability (MTT) % Decrease HaCaT” value is 46# % and the “Viability (MTT) % Decrease SRB12-p9” value is listed as 61# %. In data set [6], the “Cell Death (EthHD) % Increase HPT” value is given as 4%.
Regarding `Cc1nc(Nc2ccc(Cl)cc2)sc1-c1nc2ccccc2c(=O)n1-c1ccccc1Cl` [PMCR120], in data set [1], the “LDH release % Increase VSMC” value is on record as 11%. For the same molecule, the “LDH release % Increase HUVEC” value in data set [2] is 6%. The molecule also showed an AP-1 % inhibition in the data set with AP-1 of 27%. In addition, in data set [3], the “Viable Cells % Decrease HUVEC” value turned out to be 16%. Besides, the “Viable Cells % Decrease VSMC” value in data set [4] was found to be 13%. Besides, the NF-κB % inhibition in the data set on NF-κB is recorded as 60** %. In data set [5], the “Viability (MTT) % Decrease HaCaT” value is recorded as −4% and the “Viability (MTT) % Decrease SRB12-p9” value was 85# %. The “Cell Death (EthHD) % Increase HPT” value in data set [6] is 17%.
`COC(=O)Nc1nc(-c2ccccc2)c(-c2nc3ccccc3c(=O)n2-c2ccccc2Cl)s1` [PMCR122]: in data set [1], the “LDH release % Increase VSMC” value was 20%. In data set [2], the “LDH release % Increase HUVEC” value is on record as 37# %. Besides, the AP-1 % inhibition in the data set on AP-1 is 66** %. Further, the “Viable Cells % Decrease HUVEC” value in data set [3] is listed as 32# %. The “Viable Cells % Decrease VSMC” value in data set [4] is recorded as 45# %. Further, in the data set on NF-κB, the NF-κB % inhibition is recorded as 55** %. For the same molecule, in data set [5], the “Viability (MTT) % Decrease HaCaT” value is 6% and the “Viability (MTT) % Decrease SRB12-p9” value is given as 11%. Besides, the “Cell Death (EthHD) % Increase HPT” value in data set [6] is on record as 210# %.
In the case of `Cc1ccccc1-n1c(-c2cc(-c3ccncc3)c(N3CCOCC3)s2)nc2ccccc2c1=O` [PMCR188], the “LDH release % Increase VSMC” value in data set [1] was 148# %. For the same molecule, the “LDH release % Increase HUVEC” value in data set [2] was 160# %. This molecule showed an AP-1 % inhibition in the data set on AP-1 of 0%. Also, the “Viable Cells % Decrease HUVEC” value in data set [3] is 60# %. In data set [4], the “Viable Cells % Decrease VSMC” value is 92# %. The molecule further yielded an NF-κB % inhibition with NF-κB of 53%. Also, in data set [5], the “Viability (MTT) % Decrease HaCaT” value is listed as 0% and the “Viability (MTT) % Decrease SRB12-p9” value is 0%. Moreover, the “Cell Death (EthHD) % Increase HPT” value in data set [6] is on record as 250# %.
In the case of `COc1ccccc1-n1c(-c2cc(-c3ccc(S(C)(=O)=O)cc3)c(N3CCOCC3)s2)nc2ccccc2c1=O` [PMCR204], in data set [1], the “LDH release % Increase VSMC” value was 164# %. Further, the “LDH release % Increase HUVEC” value in data set [2] is reported as 214# %. Moreover, the AP-1 % inhibition in the data set with AP-1 worked out at 33%. Further, the “Viable Cells % Decrease HUVEC” value in data set [3] is listed as 65# %. The “Viable Cells % Decrease VSMC” value in data set [4] is reported as 70# %. The NF-κB % inhibition in the data set on NF-κB is on record as 55** %. In addition, in data set [5], the “Viability (MTT) % Decrease HaCaT” value was −8% and the “Viability (MTT) % Decrease SRB12-p9” value came out at 12%. The “Cell Death (EthHD) % Increase HPT” value in data set [6] was 207# %.
On to `COc1ccccc1-n1c(-c2cc(-c3ccncc3)c(N3CCOCC3)s2)nc2ccccc2c1=O` [PMCR206], for which the “LDH release % Increase VSMC” value in data set [1] came to 0%. Besides, in data set [2], the “LDH release % Increase HUVEC” value is −1%. The molecule further showed an AP-1 % inhibition with AP-1 of 33%. Moreover, the “Viable Cells % Decrease HUVEC” value in data set [3] is recorded as 12%. Also, in data set [4], the “Viable Cells % Decrease VSMC” value amounted to 0%. This molecule yielded an NF-κB % inhibition with NF-κB of 31%. Moreover, in data set [5], the “Viability (MTT) % Decrease HaCaT” value is 11% and the “Viability (MTT) % Decrease SRB12-p9” value is given as 30# %. Also, the “Cell Death (EthHD) % Increase HPT” value in data set [6] is listed as 147# %.
In the case of `COc1ccc(-n2c(-c3cc(-c4ccc(S(C)(=O)=O)cc4)c(N4CCOCC4)s3)nc3ccccc3c2=O)cc1` [PMCR216], in data set [1], the “LDH release % Increase VSMC” value is listed as −10%. Moreover, the “LDH release % Increase HUVEC” value in data set [2] came to 0%. The molecule also showed an AP-1 % inhibition in the data set with AP-1 of 10%. Also, the “Viable Cells % Decrease HUVEC” value in data set [3] is −1%. The “Viable Cells % Decrease VSMC” value in data set [4] is on record as 6%. The NF-κB % inhibition in the data set with NF-κB is reported as 60** %. In data set [5], the “Viability (MTT) % Decrease HaCaT” value is −21% and the “Viability (MTT) % Decrease SRB12-p9” value is on record as 16%. For the same molecule, in data set [6], the “Cell Death (EthHD) % Increase HPT” value is given as 152# %.

Source of the values: patent publication US8829014B2, “Thiazole and thiophene analogues, and their use in treating autoimmune diseases and cancers” (Board of Supervisors of Louisiana State University and …, priority 2006, dated 2014).
